Measured values reported in the NIST ThermoML archive (doi:10.1016/j.jct.2011.08.016).
± gives the expanded uncertainty stated by the source.

Experiment: xn = mol fraction of the nth substance listed
Conditions: Liquid, Vibrating tube method

CCCCCCCCCC [decane] + CCCCCCC
mass density (353.08 K, 19000 kPa, x2 = 0.777): 668.89 ± 0.55 kg/m3
mass density (353.08 K, 20000 kPa, x2 = 0.5219): 683.14 ± 0.54 kg/m3
mass density (353.08 K, 20000 kPa, x2 = 0.777): 669.88 ± 0.56 kg/m3
mass density (353.08 K, 21000 kPa, x2 = 0.5219): 684.06 ± 0.55 kg/m3
mass density (353.08 K, 21000 kPa, x2 = 0.777): 670.85 ± 0.57 kg/m3
mass density (353.08 K, 22000 kPa, x2 = 0.5219): 684.96 ± 0.56 kg/m3
mass density (353.08 K, 22000 kPa, x2 = 0.777): 671.79 ± 0.58 kg/m3
mass density (353.08 K, 23000 kPa, x2 = 0.5219): 685.84 ± 0.57 kg/m3
mass density (353.08 K, 23000 kPa, x2 = 0.777): 672.72 ± 0.58 kg/m3
mass density (353.08 K, 24000 kPa, x2 = 0.5219): 686.7 ± 0.57 kg/m3
mass density (353.08 K, 24000 kPa, x2 = 0.777): 673.63 ± 0.59 kg/m3
mass density (353.08 K, 25000 kPa, x2 = 0.5219): 687.54 ± 0.58 kg/m3
mass density (353.08 K, 25000 kPa, x2 = 0.777): 674.52 ± 0.6 kg/m3
mass density (353.09 K, 1000 kPa, x2 = 0.2594): 674.78 ± 0.42 kg/m3
mass density (353.09 K, 2000 kPa, x2 = 0.2594): 675.91 ± 0.42 kg/m3
mass density (353.09 K, 3000 kPa, x2 = 0.2594): 677.03 ± 0.43 kg/m3
mass density (353.09 K, 4000 kPa, x2 = 0.2594): 678.12 ± 0.43 kg/m3
mass density (353.09 K, 5000 kPa, x2 = 0.2594): 679.23 ± 0.44 kg/m3
mass density (353.09 K, 6000 kPa, x2 = 0.2594): 680.3 ± 0.44 kg/m3
mass density (353.09 K, 7000 kPa, x2 = 0.2594): 681.37 ± 0.45 kg/m3
mass density (353.09 K, 8000 kPa, x2 = 0.2594): 682.43 ± 0.45 kg/m3
mass density (353.09 K, 9000 kPa, x2 = 0.2594): 683.51 ± 0.46 kg/m3
mass density (353.09 K, 10000 kPa, x2 = 0.2594): 684.56 ± 0.47 kg/m3
mass density (353.09 K, 11000 kPa, x2 = 0.2594): 685.6 ± 0.47 kg/m3
mass density (353.09 K, 12000 kPa, x2 = 0.2594): 686.61 ± 0.48 kg/m3
mass density (353.09 K, 13000 kPa, x2 = 0.2594): 687.61 ± 0.48 kg/m3
mass density (353.09 K, 14000 kPa, x2 = 0.2594): 688.6 ± 0.49 kg/m3
mass density (353.09 K, 15000 kPa, x2 = 0.2594): 689.58 ± 0.5 kg/m3
mass density (353.09 K, 16000 kPa, x2 = 0.2594): 690.55 ± 0.5 kg/m3
mass density (353.09 K, 17000 kPa, x2 = 0.2594): 691.5 ± 0.51 kg/m3
mass density (353.09 K, 18000 kPa, x2 = 0.2594): 692.42 ± 0.52 kg/m3
mass density (353.09 K, 19000 kPa, x2 = 0.2594): 693.33 ± 0.52 kg/m3
mass density (353.09 K, 20000 kPa, x2 = 0.2594): 694.24 ± 0.53 kg/m3
mass density (353.09 K, 21000 kPa, x2 = 0.2594): 695.13 ± 0.54 kg/m3
mass density (353.09 K, 22000 kPa, x2 = 0.2594): 695.95 ± 0.54 kg/m3
mass density (353.09 K, 23000 kPa, x2 = 0.2594): 696.8 ± 0.55 kg/m3
mass density (353.09 K, 24000 kPa, x2 = 0.2594): 697.62 ± 0.56 kg/m3
mass density (353.09 K, 25000 kPa, x2 = 0.2594): 698.42 ± 0.56 kg/m3
mass density (353.12 K, 1000 kPa, x2 = 0.952): 636.17 ± 0.44 kg/m3
mass density (353.12 K, 2000 kPa, x2 = 0.952): 637.58 ± 0.44 kg/m3
mass density (353.12 K, 3000 kPa, x2 = 0.952): 638.96 ± 0.45 kg/m3
mass density (353.12 K, 4000 kPa, x2 = 0.952): 640.34 ± 0.45 kg/m3
mass density (353.12 K, 5000 kPa, x2 = 0.952): 641.71 ± 0.46 kg/m3
mass density (353.12 K, 6000 kPa, x2 = 0.952): 643.05 ± 0.47 kg/m3
mass density (353.12 K, 7000 kPa, x2 = 0.952): 644.36 ± 0.47 kg/m3
mass density (353.12 K, 8000 kPa, x2 = 0.952): 645.65 ± 0.48 kg/m3
mass density (353.12 K, 9000 kPa, x2 = 0.952): 646.91 ± 0.49 kg/m3
mass density (353.12 K, 10000 kPa, x2 = 0.952): 648.14 ± 0.49 kg/m3
mass density (353.12 K, 11000 kPa, x2 = 0.952): 649.36 ± 0.5 kg/m3
mass density (353.12 K, 12000 kPa, x2 = 0.952): 650.55 ± 0.51 kg/m3
mass density (353.12 K, 13000 kPa, x2 = 0.952): 651.72 ± 0.52 kg/m3
mass density (353.12 K, 14000 kPa, x2 = 0.952): 652.87 ± 0.53 kg/m3
mass density (353.12 K, 15000 kPa, x2 = 0.952): 654 ± 0.53 kg/m3
mass density (353.12 K, 16000 kPa, x2 = 0.952): 655.12 ± 0.54 kg/m3
mass density (353.12 K, 17000 kPa, x2 = 0.952): 656.22 ± 0.55 kg/m3
mass density (353.12 K, 18000 kPa, x2 = 0.952): 657.29 ± 0.56 kg/m3
mass density (353.12 K, 19000 kPa, x2 = 0.952): 658.35 ± 0.56 kg/m3
mass density (353.12 K, 20000 kPa, x2 = 0.952): 659.4 ± 0.57 kg/m3
mass density (353.12 K, 21000 kPa, x2 = 0.952): 660.42 ± 0.58 kg/m3
mass density (353.12 K, 22000 kPa, x2 = 0.952): 661.43 ± 0.59 kg/m3
mass density (353.12 K, 23000 kPa, x2 = 0.952): 662.41 ± 0.6 kg/m3
mass density (353.12 K, 24000 kPa, x2 = 0.952): 663.35 ± 0.61 kg/m3
mass density (353.12 K, 25000 kPa, x2 = 0.952): 664.3 ± 0.61 kg/m3
mass density (363.02 K, 1000 kPa, x2 = 0.5219): 654.13 ± 0.43 kg/m3
mass density (363.02 K, 1000 kPa, x2 = 0.777): 639 ± 0.43 kg/m3
mass density (363.02 K, 2000 kPa, x2 = 0.5219): 655.44 ± 0.43 kg/m3
mass density (363.02 K, 2000 kPa, x2 = 0.777): 640.47 ± 0.44 kg/m3
mass density (363.02 K, 3000 kPa, x2 = 0.5219): 656.74 ± 0.44 kg/m3
mass density (363.02 K, 3000 kPa, x2 = 0.777): 641.89 ± 0.44 kg/m3
mass density (363.02 K, 4000 kPa, x2 = 0.5219): 657.94 ± 0.44 kg/m3
mass density (363.02 K, 4000 kPa, x2 = 0.777): 643.28 ± 0.45 kg/m3
mass density (363.02 K, 5000 kPa, x2 = 0.5219): 659.19 ± 0.45 kg/m3
mass density (363.02 K, 5000 kPa, x2 = 0.777): 644.65 ± 0.46 kg/m3
mass density (363.02 K, 6000 kPa, x2 = 0.5219): 660.44 ± 0.45 kg/m3
mass density (363.02 K, 6000 kPa, x2 = 0.777): 646 ± 0.46 kg/m3
mass density (363.02 K, 7000 kPa, x2 = 0.5219): 661.67 ± 0.46 kg/m3
mass density (363.02 K, 7000 kPa, x2 = 0.777): 647.32 ± 0.47 kg/m3
mass density (363.02 K, 8000 kPa, x2 = 0.5219): 662.86 ± 0.47 kg/m3
mass density (363.02 K, 8000 kPa, x2 = 0.777): 648.61 ± 0.48 kg/m3
mass density (363.02 K, 9000 kPa, x2 = 0.5219): 664.05 ± 0.47 kg/m3
mass density (363.02 K, 9000 kPa, x2 = 0.777): 649.89 ± 0.48 kg/m3
mass density (363.02 K, 10000 kPa, x2 = 0.5219): 665.24 ± 0.48 kg/m3
mass density (363.02 K, 10000 kPa, x2 = 0.777): 651.15 ± 0.49 kg/m3
mass density (363.02 K, 11000 kPa, x2 = 0.5219): 666.41 ± 0.49 kg/m3
mass density (363.02 K, 11000 kPa, x2 = 0.777): 652.39 ± 0.5 kg/m3
mass density (363.02 K, 12000 kPa, x2 = 0.5219): 667.56 ± 0.49 kg/m3
mass density (363.02 K, 12000 kPa, x2 = 0.777): 653.61 ± 0.5 kg/m3
mass density (363.02 K, 13000 kPa, x2 = 0.5219): 668.7 ± 0.5 kg/m3
mass density (363.02 K, 13000 kPa, x2 = 0.777): 654.81 ± 0.51 kg/m3
mass density (363.02 K, 14000 kPa, x2 = 0.5219): 669.81 ± 0.51 kg/m3
mass density (363.02 K, 14000 kPa, x2 = 0.777): 655.99 ± 0.52 kg/m3
mass density (363.02 K, 15000 kPa, x2 = 0.5219): 670.91 ± 0.51 kg/m3
mass density (363.02 K, 15000 kPa, x2 = 0.777): 657.15 ± 0.53 kg/m3
mass density (363.02 K, 16000 kPa, x2 = 0.5219): 671.98 ± 0.52 kg/m3
